Measurements: ChEMBL document CHEMBL1150384, “Design, synthesis, and evaluation of potential inhibitors of nitric oxide synthase” (Bioorg Med Chem, 2008)
pKi: −log10 of the molar value.

target: Nitric oxide synthase 1 (Homo sapiens, UniProt P29475)
Sequence (P29475 whole entry): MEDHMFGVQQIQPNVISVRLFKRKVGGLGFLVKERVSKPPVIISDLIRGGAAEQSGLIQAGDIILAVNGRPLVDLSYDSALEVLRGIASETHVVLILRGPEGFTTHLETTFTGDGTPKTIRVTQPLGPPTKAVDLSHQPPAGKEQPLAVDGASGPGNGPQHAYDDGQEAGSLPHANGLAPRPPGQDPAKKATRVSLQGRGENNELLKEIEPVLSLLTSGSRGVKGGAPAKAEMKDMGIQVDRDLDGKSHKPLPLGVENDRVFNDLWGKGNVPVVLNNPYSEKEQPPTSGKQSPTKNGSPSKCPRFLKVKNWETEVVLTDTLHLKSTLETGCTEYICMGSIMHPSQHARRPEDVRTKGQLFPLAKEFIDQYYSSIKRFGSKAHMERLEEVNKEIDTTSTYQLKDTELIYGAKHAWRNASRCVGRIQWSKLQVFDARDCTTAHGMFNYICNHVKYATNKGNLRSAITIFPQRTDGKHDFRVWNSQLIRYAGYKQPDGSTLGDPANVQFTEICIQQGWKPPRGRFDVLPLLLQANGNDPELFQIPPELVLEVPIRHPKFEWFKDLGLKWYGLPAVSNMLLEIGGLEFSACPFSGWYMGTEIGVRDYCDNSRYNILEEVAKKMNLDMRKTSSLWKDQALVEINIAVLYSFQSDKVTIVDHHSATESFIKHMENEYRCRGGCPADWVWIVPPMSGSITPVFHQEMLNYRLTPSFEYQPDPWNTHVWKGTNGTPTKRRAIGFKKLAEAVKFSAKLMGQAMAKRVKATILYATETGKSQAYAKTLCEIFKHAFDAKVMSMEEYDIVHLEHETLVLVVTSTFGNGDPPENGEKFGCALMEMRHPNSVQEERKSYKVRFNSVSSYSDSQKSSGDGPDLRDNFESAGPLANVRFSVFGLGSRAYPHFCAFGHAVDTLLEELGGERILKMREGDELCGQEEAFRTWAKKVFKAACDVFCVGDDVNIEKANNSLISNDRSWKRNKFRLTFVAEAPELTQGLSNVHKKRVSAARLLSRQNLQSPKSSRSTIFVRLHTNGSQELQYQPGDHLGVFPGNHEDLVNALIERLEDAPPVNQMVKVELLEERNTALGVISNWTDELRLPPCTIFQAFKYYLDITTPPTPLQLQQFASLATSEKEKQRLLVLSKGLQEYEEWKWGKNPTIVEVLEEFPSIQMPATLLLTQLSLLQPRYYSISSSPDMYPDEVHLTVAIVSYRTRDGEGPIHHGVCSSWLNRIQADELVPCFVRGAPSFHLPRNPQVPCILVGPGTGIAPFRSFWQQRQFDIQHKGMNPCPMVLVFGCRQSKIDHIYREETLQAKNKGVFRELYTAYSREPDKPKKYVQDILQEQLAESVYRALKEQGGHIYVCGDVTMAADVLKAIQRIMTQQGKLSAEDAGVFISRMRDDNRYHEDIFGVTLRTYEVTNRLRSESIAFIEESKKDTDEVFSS
Description: Inhibition of nNOS assessed as conversion of L-[3H]arginine to L-[3H]citrulline

| Structure (SMILES) | pKi |
| --- | --- |
| C=CCC(=N)NCCC[C@H](N)C(=O)O | 7.00 |
| N=C(N)SCCc1cccc(CCSC(=N)N)c1 | 6.60 |
| O=C(Cn1ccnc1)c1ccc([N+](=O)[O-])cc1 | 3.98 |
| NC(=O)[C@@H]1C[C@@H](NC(=O)[C@@H](N)CCC/N=C(\N)N[N+](=O)[O-])CN1 | 7.00 |
| c1ccc(-n2ccnc2)cc1 | 3.37 |
| NC1=NCCS1 | 6.39 |
| CCCC(=N)NCCC[C@H](N)C(=O)O | 5.28 |
| N=C(N)SCCc1ccc(CCSC(=N)N)cc1 | 7.80 |
| N[C@@H](CCCCCCc1cnc[nH]1)C(=O)O | 3.82 |
| CNC(=N)NN | 4.85 |
| Cc1nccn1CC(=O)c1ccc([N+](=O)[O-])cc1 | 4.13 |
| N[C@@H](CCCc1cnc[nH]1)C(=O)O | 5.70 |
| N[C@@H](CCCCCc1cncn1-c1ccccc1)C(=O)O | 4.15 |
| Cc1nc(N)sc1C | 6.42 |
| Cc1cc(C)n(C(=N)N)n1 | 3.46 |
| CC(C)(C)SC(=N)N | 6.21 |
| CC(=N)Nc1cccc(CCN)c1 | 6.00 |
| N=C(N)SCCN | 5.74 |
| c1ccc(-c2ccc(CCn3ccnc3)cc2)cc1 | 3.76 |
| N[C@@H](CCCCCc1cnc[nH]1)C(=O)O | 5.70 |
| FC(F)(F)c1ccc(OCCn2ccnc2)cc1 | 4.35 |
| CC(=N)Nc1cccc(CNCc2cccc(C(C)=N)c2)c1 | 7.38 |
| OC(Cn1ccnc1)c1ccc(-c2ccccc2)cc1 (centres undefined) | 3.90 |
| CC(C)SC(=N)N | 7.43 |
| CCCSC(=N)N | 6.20 |

| Structure (SMILES) | pKi |
| --- | --- |
| FC(F)(F)c1ccc(OCCCn2ccnc2)cc1 | 4.12 |
| Nc1nc(CCc2ccccc2)cs1 | 6.05 |
| Brc1ccc(OCCCCCCn2ccnc2)cc1 | 4.24 |
| N[C@@H](CCCCc1cnc[nH]1)C(=O)O | 4.19 |
| N[C@@H](CCc1cnc[nH]1)C(=O)O | 3.77 |
| N[C@@H](CCCc1cncn1-c1ccccc1)C(=O)O | 4.10 |
| N[C@@H](CCCCc1cncn1-c1ccccc1)C(=O)O | 4.00 |
| CC(=N)Nc1cccc(S(N)(=O)=O)c1 | 4.54 |
| N=C(N)SCc1ccc(CSC(=N)N)cc1 | 7.00 |
| N=C(N)SCCCc1cccc(CCCSC(=N)N)c1 | 5.32 |
| Cc1cnc(N)s1 | 5.96 |
| FC(F)(F)c1ccc(OCCCCn2ccnc2)cc1 | 4.03 |
| N=C(N)SCCCc1ccccc1 | 4.85 |
| Cc1csc(N)n1 | 5.00 |
| CCNC(=N)NN | 6.00 |
| CCC(=N)NCCC[C@H](N)C(=O)O | 5.52 |
| CC(C)=CCSC(=N)N | 5.70 |
| FC(F)(F)c1ccc(OCCCCCCn2ccnc2)cc1 | 4.46 |
| N=C(NCCC[C@H](N)C(=O)N[C@@H]1CN[C@@H](C(N)=O)C1)N[N+](=O)[O-] | 5.96 |
| N=C(NN)NO | 6.17 |
| Nc1nccs1 [AMINOTHIAZOLE] | 4.92 |
| CCSC(=N)N [ETHYLISOTHIOUREA] | 7.54 |
| c1c[nH]cn1 [IMIDAZOLE] | 3.76 |
| N=C(N)NN [PIMAGEDINE] | 5.48 |
| N=C(N)n1cccn1 [PRAXADINE] | 6.40 |

Next, values leading:

| pKi | Structure (SMILES) |
| --- | --- |
| 5.00 | N=C(NCC1CC1)n1cccn1 |
| 5.22 | NCCCC/N=C(\N)n1cccn1 |
| 5.68 | CC(=N)Nc1cccc(CNO)c1 |
| 4.92 | Cc1cnn(C(=N)N)c1 |
| 4.49 | Brc1ccc(OCCCCn2ccnc2)cc1 |
| 4.85 | CC(=N)Nc1cccc(N)c1 |
| 5.52 | CCC/N=C(\N)n1cccn1 |
| 5.10 | Cc1ccn(C(=N)N)n1 |
| 6.24 | CC(=N)Nc1cccc(C(=N)N)c1 |
| 6.43 | CC(=N)Nc1cccc(CN=C(C)N)c1 |
| 4.22 | CCCCC/N=C(\N)n1cccn1 |
| 3.43 | O=C(Cn1ccnc1)c1ccccc1[N+](=O)[O-] |
| 4.22 | Brc1cccc(OCCCCn2ccnc2)c1 |
| 3.90 | Brc1ccc(OCCn2ccnc2)cc1 |
| 6.44 | CC(=N)Nc1cccc(CSC(=N)N)c1 |
| 5.70 | N=C(Nc1cccc(CN)c1)n1cccn1 |
| 5.82 | CC(=N)Nc1cccc(NC(C)=N)c1 |
| 4.85 | CCCC/N=C(\N)n1cccn1 |
| 6.10 | N=C(N)SCCc1ccccc1 |
| 4.35 | CC(C)C/N=C(\N)n1cccn1 |
| 3.90 | Brc1ccc(OCCCn2ccnc2)cc1 |
| 7.25 | CNCc1cccc(NC(C)=N)c1 |
| 5.55 | CC(=N)Nc1cccc(CN2CCOCC2)c1 |
| 4.30 | N=C(NC1CC1)n1cccn1 |
| 6.77 | CC(=N)Nc1cccc(CN(C)C)c1 |
| 5.96 | CC(=N)Nc1cccc(NN)c1 |
| 3.74 | Brc1ccccc1OCCCCn1ccnc1 |
| 5.40 | N=C(NN)Nc1ccccc1 |
| 4.85 | N=C(N)SCc1ccccc1 [BENZYL CARBAMIMIDOTHIOATE] |
